In ChEMBL document CHEMBL1201862, “PubChem BioAssay data set” (2004) one finds EC50 and IC50 data, which are given here for six compounds.

Experiment [1] is described as follows: NIH-3T3 fibroblast cytotoxicity, dose response, cytotoxicity control, cell-based, fluorescence, Alamar Blue, secondary assay (AID 2327).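 Note: NIH-3T3 mouse fibroblasts cultured with fluconazole at 8 µg/mL.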 The class given is functional.
The nature of experiment [2]: C. albicans growth with fluconazole, confirmation, fluorescence, retest (AID 2467). The experiment is classed as functional, cell-based.
The target of experiment [3] is T1, Serine/threonine-protein phosphatase (Candida dubliniensis (strain CD36 / CBS 7987 / NCPF 3949 / NRRLY-17841) (Yeast), UniProt B9W6M3).
T1 sequence (B9W6M3 whole entry): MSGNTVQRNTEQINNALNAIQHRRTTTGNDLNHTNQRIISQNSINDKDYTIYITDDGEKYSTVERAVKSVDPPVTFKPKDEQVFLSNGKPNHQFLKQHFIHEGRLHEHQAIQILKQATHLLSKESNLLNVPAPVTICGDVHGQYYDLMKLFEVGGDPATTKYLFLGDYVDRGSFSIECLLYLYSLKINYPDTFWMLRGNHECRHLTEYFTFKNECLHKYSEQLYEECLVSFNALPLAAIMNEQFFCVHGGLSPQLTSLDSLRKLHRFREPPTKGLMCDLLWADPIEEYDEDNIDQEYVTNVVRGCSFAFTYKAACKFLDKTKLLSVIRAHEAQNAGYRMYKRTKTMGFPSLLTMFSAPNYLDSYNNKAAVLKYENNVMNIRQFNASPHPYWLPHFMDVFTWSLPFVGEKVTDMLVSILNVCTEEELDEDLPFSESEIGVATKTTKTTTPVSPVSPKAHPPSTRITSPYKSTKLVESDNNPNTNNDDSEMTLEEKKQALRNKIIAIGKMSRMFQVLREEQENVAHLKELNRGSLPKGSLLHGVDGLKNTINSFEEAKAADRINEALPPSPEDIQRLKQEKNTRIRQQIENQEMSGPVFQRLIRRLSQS
As to the kind of experiment: calcineurin pathway inhibitors in yeast reporter, dose response, S. cerevisiae, CDRE-lacZ, luminescence, secondary (AID 2388).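 Note: yeast reporter cells carrying a calcineurin-responsive lacZ construct stimulated with calcium chloride; luminescent beta-galactosidase reporter signal in whole cells rather than isolated phosphatase activity; potency for inhibition where a drop in reporter signal means calcineurin blockade.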 The experiment is classed as functional, cell-based.

Experiment [4] addresses ATP-dependent molecular chaperone HSP82 (Candida albicans (strain WO-1) (Yeast), UniProt C4YTQ8). As to the kind of experiment: loss of DOC-induced GRE-beta-galactosidase reporter signal, dose response, Hsp90 inhibitor project, S. cerevisiae, luminescence (AID 2400).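 Note: beta-galactosidase luminescence from glucocorticoid response element reporter as proxy for Hsp90 function; inhibitor potency where signal loss means Hsp90 inhibition.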 The experiment is classed as functional, cell-based.
Experiment [5] addresses Peroxisome proliferator-activated receptor gamma/Nuclear receptor coactivator 1 (Homo sapiens, UniProt P37231). In words: TR-FRET dose response biochemical High Throughput Screening assay for agonists of the steroid receptor coactivator 1 (SRC-1) recruitment by the peroxisome proliferator-activated receptor gamma (PPAR gamma): non-selective agonists. [Related pubchem assays (depositor defined):AID1300, AID1808, AID504735, AID631]. The class given is protein assay.

Experiment [6] has as its target Peroxisome proliferator-activated receptor gamma/Nuclear receptor coactivator 3 (Homo sapiens, UniProt P37231). In words: TR-FRET dose response biochemical High Throughput Screening assay for agonists of the steroid receptor coactivator 3 (SRC-3) recruitment by the peroxisome proliferator-activated receptor gamma (PPAR gamma): non-selective agonists. [Related pubchem assays: 1301 (Confirmation screen.), 1048 (Primary screen.)]. The experiment is classed as functional.

The target of experiment [7] is Peroxisome proliferator-activated receptor gamma/Nuclear receptor coactivator 2 (Homo sapiens, UniProt P37231). In words: TR-FRET dose response biochemical High Throughput Screening assay for agonists of the steroid receptor coactivator 2 (SRC-2) recruitment by the peroxisome proliferator-activated receptor gamma (PPAR gamma): non-selective agonists. [Related pubchem assays: 1297, 1032 ]. The experiment is classed as functional.
Sequence of Peroxisome proliferator-activated receptor gamma/Nuclear receptor coactivator 2 (P37231 whole entry): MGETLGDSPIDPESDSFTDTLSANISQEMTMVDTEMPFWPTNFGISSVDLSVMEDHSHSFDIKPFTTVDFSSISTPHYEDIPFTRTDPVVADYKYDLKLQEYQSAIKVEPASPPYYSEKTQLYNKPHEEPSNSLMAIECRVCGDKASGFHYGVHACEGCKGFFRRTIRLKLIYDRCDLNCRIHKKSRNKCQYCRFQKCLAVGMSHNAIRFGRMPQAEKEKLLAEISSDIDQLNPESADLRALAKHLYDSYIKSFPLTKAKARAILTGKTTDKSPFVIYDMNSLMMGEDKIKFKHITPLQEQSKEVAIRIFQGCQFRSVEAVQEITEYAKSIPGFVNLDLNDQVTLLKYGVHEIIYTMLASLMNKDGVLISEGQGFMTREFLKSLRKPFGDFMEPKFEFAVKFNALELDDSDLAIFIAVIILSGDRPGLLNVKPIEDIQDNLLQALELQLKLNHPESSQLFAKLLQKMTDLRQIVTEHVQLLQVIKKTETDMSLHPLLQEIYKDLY
Sequence of Peroxisome proliferator-activated receptor gamma/Nuclear receptor coactivator 2 (Q15596 whole entry, further chain): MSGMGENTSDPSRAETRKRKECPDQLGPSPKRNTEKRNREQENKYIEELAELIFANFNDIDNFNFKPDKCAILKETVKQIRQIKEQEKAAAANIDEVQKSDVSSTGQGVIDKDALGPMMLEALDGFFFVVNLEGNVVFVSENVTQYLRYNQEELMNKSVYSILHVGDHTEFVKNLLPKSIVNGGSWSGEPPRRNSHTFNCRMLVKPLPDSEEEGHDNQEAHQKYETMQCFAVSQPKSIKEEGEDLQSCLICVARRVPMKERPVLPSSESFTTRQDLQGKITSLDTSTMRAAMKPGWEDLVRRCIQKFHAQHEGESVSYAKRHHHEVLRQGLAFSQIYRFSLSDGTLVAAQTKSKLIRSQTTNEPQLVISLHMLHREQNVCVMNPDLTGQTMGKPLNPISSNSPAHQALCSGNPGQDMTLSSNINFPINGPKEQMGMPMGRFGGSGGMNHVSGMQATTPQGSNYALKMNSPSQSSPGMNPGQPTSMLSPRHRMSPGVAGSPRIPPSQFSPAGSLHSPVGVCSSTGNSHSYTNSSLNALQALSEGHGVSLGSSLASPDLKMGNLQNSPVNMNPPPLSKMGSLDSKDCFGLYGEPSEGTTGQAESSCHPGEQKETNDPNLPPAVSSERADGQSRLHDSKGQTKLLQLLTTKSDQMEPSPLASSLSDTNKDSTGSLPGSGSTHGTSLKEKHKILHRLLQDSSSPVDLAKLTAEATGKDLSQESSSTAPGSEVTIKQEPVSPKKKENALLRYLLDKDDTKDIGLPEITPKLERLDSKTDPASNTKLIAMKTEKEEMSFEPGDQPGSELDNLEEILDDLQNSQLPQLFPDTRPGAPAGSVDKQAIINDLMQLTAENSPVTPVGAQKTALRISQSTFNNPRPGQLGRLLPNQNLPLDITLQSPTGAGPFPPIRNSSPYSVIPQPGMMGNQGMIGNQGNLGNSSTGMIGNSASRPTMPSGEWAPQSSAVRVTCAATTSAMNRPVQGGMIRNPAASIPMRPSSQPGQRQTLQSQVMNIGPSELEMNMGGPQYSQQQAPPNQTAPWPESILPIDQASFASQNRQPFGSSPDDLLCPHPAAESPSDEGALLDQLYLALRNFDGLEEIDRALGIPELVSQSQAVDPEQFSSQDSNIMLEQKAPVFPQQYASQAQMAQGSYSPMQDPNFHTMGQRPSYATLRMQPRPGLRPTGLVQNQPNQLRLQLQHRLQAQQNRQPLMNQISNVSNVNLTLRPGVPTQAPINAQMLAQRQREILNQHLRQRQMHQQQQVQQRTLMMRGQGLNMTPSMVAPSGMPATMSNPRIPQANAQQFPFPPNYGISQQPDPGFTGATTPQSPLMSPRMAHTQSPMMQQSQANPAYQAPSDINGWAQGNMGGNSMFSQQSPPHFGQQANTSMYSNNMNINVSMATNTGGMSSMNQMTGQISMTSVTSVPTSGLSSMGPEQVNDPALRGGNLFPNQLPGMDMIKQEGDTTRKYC

Experiment [8] has as its target T2, Mannose-6-phosphate isomerase (Homo sapiens, UniProt P34949).
T2 sequence (P34949 whole entry): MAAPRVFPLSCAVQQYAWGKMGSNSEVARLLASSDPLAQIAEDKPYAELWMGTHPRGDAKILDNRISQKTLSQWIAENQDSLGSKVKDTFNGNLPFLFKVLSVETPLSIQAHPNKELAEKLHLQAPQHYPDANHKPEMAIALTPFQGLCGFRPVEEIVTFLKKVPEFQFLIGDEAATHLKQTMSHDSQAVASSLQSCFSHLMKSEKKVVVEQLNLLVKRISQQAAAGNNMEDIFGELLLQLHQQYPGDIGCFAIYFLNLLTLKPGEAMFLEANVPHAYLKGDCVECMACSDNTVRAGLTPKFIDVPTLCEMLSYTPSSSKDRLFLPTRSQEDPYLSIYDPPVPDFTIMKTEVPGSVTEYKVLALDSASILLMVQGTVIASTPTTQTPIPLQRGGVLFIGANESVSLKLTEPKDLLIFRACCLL
In words: PMI enzyme inhibitors, confirmation, biochemical, fluorescence intensity (AID 1535).

The next experiment concerns the target T3, Phosphomannomutase 2 (Homo sapiens, UniProt O15305).
T3 sequence (O15305 whole entry): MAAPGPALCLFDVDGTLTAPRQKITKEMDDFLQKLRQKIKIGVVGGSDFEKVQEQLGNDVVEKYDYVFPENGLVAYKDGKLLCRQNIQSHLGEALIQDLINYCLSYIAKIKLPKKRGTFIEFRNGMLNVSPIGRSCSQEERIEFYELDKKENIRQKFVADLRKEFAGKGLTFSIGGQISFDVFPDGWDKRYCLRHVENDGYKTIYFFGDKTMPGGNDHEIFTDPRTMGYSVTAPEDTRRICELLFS
As to the kind of experiment: Counter screen SAR assay for PMM2 inhibitors via a fluorescence intensity assay. [Related pubchem assays (depositor defined):AID1545, AID1574].

Calls of active or inactive are those of the source.

Sequence of Peroxisome proliferator-activated receptor gamma/Nuclear receptor coactivator 1 (P37231 whole entry): as the sequence (P37231 whole entry) above
Sequence of Peroxisome proliferator-activated receptor gamma/Nuclear receptor coactivator 1 (Q15788 whole entry, further chain): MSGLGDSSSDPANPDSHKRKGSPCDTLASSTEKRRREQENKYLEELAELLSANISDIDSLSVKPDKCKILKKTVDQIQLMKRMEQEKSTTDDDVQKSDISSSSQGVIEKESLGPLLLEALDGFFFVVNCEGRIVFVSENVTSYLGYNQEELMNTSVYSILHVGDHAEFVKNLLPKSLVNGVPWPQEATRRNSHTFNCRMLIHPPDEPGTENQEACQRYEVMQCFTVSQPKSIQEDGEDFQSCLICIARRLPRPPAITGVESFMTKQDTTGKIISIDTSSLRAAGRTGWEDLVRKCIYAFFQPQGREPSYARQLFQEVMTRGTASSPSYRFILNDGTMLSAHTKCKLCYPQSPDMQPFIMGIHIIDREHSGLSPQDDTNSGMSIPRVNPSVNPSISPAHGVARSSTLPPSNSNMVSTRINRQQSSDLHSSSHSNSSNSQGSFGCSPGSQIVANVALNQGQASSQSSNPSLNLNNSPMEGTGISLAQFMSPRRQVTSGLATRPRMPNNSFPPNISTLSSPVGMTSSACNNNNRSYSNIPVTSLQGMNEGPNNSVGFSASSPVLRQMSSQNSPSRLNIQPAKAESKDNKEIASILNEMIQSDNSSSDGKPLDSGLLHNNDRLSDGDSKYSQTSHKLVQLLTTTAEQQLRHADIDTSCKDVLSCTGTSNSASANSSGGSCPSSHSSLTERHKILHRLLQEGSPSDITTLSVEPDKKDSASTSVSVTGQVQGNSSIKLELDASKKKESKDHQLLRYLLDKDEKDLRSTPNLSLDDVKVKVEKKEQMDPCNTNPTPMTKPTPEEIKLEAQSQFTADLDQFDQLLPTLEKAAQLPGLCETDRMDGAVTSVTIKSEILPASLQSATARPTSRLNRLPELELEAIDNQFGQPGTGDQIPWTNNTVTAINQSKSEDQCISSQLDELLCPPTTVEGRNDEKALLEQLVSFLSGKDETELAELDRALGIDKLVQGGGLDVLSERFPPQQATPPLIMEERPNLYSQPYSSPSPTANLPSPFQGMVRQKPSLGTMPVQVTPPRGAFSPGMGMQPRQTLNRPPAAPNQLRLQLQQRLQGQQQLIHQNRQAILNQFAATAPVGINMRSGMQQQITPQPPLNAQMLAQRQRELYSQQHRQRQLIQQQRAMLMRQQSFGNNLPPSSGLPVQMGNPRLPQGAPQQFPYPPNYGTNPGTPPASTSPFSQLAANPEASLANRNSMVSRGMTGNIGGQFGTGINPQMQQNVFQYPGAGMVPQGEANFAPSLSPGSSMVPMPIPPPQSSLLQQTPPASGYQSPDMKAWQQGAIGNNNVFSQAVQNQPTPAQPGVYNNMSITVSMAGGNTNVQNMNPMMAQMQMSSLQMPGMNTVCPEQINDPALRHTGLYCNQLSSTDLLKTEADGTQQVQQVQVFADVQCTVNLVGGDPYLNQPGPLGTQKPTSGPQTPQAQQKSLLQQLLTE
Sequence of ATP-dependent molecular chaperone HSP82 (C4YTQ8 whole entry): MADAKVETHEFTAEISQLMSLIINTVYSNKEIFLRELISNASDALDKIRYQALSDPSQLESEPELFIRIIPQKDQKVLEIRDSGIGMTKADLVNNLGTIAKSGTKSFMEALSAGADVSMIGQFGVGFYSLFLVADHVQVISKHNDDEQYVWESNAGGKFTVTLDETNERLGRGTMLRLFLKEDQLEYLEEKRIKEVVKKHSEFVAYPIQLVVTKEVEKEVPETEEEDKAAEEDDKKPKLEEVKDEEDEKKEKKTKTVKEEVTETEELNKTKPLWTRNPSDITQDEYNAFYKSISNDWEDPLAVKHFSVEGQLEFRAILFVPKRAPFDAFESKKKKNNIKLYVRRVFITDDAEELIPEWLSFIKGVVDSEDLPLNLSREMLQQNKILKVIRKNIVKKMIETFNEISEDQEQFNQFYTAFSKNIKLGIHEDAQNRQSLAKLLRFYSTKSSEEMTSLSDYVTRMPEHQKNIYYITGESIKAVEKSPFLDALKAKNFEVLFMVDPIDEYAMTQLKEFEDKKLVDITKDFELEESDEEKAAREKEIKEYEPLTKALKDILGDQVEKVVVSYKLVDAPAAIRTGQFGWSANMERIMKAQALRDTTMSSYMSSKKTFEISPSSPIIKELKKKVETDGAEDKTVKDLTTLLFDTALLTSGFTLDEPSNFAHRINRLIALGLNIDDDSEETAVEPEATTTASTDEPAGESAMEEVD

`O=[N+]([O-])c1ccc(O)c(P(=O)(c2ccccc2)c2ccccc2)c1`: the EC50 in experiment [1] was > 150 µM (inactive); in experiment [2], 0.698 µM (active); in experiment [3] it was > 180 µM (inactive); in experiment [4] it was > 150 µM (inactive).

For the compound `CC(C)OC(=O)CNc1nnc(S)nc1O`, the EC50 is 2.28 µM (active) in experiment [5], 21.7 µM (not active) in [6] and 2.47 µM (active) in [7].

As for `NC(=O)CSc1ncnc2c1oc1ccccc12`, the EC50 in experiment [5] was 27.6 µM (inactive); in experiment [6], > 79.4 µM (not active); in experiment [7], > 26.5 µM (not active).

Turning to `CCSc1nnc(-c2ccccc2SC)o1`, the values for the EC50 in experiment [5], in experiment [6] and in experiment [7] were > 79.4 µM (inactive), > 79.4 µM (not active) and 237 µM (not active), respectively.

For the compound `Fc1ccc(-c2nnsc2Sc2ccccn2)cc1`, the half-maximal effective concentration (EC50) in experiment [5] is 8.31 µM (active); in experiment [6] it was 16.1 µM (not active); in [7], 11.8 µM (not active).

On to `Cc1ccncc1/N=c1\ssnc1Cl`, for which the IC50 in [8] was 34 µM (active); at Phosphomannomutase 2 it was > 100 µM (inactive).
